Reference: ChEMBL document CHEMBL4507293 (2021)
pKi: −log10 of the molar value.

Assays:
[1] = target: cGMP-specific 3',5'-cyclic phosphodiesterase (Homo sapiens, UniProt O76074); assay: Biochemical assay (PDE5A)
[2] = target: Tyrosine-protein kinase Blk (Homo sapiens) (UniProt P51451); conditions: Compound concentration 100.0 nM
[3] = target: Serine/threonine-protein kinase BRSK2 (Homo sapiens) (UniProt Q8IWQ3); conditions: Compound concentration 100.0 nM
[4] = target: Calcium/calmodulin-dependent protein kinase type 1 (Homo sapiens) (UniProt Q14012); conditions: Compound concentration 100.0 nM
[5] = target: Peripheral plasma membrane protein CASK (Homo sapiens) (UniProt O14936); conditions: Compound concentration 100.0 nM
[6] = target: Dual specificity protein kinase CLK4 (Homo sapiens) (UniProt Q9HAZ1); conditions: Compound concentration 100.0 nM
[7] = target: Dual specificity tyrosine-phosphorylation-regulated kinase 1B (Homo sapiens) (UniProt Q9Y463); conditions: Compound concentration 100.0 nM
Sequence of Dual specificity tyrosine-phosphorylation-regulated kinase 1B (Homo sapiens) (Q9Y463 whole entry, looked up): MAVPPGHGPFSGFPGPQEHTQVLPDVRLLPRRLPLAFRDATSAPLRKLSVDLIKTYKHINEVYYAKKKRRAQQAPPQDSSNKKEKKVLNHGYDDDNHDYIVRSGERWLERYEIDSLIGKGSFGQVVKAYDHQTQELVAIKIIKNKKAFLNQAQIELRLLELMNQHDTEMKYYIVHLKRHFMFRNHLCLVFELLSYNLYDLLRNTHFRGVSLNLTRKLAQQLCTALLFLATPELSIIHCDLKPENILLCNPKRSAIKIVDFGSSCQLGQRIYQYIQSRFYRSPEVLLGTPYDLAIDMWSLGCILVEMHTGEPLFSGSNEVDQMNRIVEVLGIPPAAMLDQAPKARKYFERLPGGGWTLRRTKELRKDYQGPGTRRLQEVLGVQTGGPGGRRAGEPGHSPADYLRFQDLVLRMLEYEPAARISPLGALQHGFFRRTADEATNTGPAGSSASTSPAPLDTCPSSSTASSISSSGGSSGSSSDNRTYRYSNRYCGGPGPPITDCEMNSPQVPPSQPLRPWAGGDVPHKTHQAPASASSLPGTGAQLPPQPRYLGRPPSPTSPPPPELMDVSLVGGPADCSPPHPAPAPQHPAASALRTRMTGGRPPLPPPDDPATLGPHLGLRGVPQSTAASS

[8] = test system: Epidermal growth factor receptor (Homo sapiens), P00533 [UNDEFINED MUTATION]; conditions: Compound concentration 100.0 nM
Sequence of Epidermal growth factor receptor (Homo sapiens), P00533 [UNDEFINED MUTATION] (P00533 whole entry, looked up, change not shown): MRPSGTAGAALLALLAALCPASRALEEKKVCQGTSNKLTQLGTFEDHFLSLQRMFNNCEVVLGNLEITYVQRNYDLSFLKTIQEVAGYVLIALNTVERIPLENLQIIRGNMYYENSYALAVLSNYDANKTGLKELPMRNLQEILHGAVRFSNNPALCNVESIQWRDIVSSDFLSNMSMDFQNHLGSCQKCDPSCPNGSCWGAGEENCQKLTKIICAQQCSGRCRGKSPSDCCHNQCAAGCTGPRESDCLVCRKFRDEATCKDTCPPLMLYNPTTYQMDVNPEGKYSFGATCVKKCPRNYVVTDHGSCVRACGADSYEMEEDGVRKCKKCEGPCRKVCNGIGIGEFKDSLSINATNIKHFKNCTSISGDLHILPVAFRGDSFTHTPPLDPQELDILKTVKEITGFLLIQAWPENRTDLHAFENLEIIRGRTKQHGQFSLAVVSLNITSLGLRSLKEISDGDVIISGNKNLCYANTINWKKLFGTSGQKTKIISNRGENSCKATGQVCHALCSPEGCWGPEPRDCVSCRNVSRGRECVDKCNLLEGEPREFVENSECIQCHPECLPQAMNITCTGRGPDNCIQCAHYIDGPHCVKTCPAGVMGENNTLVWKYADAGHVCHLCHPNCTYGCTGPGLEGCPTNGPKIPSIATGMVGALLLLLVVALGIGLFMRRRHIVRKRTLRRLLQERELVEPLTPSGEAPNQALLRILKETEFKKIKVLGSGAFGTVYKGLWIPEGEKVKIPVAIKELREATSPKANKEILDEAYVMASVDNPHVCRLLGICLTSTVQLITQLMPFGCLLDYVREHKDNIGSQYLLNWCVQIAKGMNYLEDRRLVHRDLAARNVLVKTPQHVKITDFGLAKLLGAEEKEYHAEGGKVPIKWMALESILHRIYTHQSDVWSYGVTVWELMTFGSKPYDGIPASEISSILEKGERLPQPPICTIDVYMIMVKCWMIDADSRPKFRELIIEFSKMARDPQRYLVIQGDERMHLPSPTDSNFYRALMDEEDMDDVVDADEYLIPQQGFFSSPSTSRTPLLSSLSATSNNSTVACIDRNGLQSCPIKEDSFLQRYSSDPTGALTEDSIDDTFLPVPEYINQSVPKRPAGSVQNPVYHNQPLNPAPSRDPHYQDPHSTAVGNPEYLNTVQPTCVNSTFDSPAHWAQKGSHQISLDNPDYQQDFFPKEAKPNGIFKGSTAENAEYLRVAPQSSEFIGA

[9] = target: Ephrin type-A receptor 3 (Homo sapiens) (UniProt P29320); conditions: Compound concentration 100.0 nM
[10] = target: Rhodopsin kinase GRK1 (Homo sapiens) (UniProt Q15835); conditions: Compound concentration 100.0 nM
Sequence of Rhodopsin kinase GRK1 (Homo sapiens) (Q15835 whole entry): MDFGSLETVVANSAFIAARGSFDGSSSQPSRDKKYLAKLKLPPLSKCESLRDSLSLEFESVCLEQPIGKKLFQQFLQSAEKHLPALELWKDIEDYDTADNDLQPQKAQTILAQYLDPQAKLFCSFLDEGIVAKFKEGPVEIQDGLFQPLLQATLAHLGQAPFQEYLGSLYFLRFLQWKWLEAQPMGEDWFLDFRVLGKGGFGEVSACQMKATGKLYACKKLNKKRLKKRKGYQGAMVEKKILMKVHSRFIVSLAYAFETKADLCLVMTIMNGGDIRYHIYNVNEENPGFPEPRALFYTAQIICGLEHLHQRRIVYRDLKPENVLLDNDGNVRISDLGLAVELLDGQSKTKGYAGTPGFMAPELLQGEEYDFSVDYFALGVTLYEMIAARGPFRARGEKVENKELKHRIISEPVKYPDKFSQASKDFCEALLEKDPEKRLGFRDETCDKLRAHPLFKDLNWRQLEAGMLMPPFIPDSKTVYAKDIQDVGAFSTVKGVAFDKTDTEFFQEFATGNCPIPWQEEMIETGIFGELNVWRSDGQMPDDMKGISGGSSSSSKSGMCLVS

[11] = target: Homeodomain-interacting protein kinase 4 (Homo sapiens) (UniProt Q8NE63); conditions: Compound concentration 100.0 nM
[12] = target: Serine/threonine-protein kinase ICK (Homo sapiens) (UniProt Q9UPZ9); conditions: Compound concentration 100.0 nM
Sequence of Serine/threonine-protein kinase ICK (Homo sapiens) (Q9UPZ9 whole entry): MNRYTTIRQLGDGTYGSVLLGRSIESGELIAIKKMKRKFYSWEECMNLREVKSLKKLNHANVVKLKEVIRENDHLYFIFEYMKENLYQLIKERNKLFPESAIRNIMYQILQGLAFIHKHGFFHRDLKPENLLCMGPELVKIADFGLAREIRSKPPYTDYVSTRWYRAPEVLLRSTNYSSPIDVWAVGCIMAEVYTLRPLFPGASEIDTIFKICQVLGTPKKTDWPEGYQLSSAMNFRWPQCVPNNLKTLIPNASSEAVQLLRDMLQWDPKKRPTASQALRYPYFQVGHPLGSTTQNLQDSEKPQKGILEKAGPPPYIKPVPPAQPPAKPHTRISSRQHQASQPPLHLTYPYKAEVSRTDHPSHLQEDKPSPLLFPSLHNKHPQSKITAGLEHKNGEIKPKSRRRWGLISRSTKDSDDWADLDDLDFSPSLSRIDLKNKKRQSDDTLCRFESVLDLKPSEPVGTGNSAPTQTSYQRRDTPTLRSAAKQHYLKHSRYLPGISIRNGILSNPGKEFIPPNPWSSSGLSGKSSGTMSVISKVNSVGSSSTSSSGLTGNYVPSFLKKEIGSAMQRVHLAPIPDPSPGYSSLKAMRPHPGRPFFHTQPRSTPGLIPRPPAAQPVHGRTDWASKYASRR

[13] = target: Insulin receptor-related protein (Homo sapiens) (UniProt P14616); conditions: Compound concentration 100.0 nM
[14] = target: Tyrosine-protein kinase JAK1 (Homo sapiens) (UniProt P23458); conditions: Compound concentration 100.0 nM
[15] = test system: Mast/stem cell growth factor receptor Kit (Homo sapiens), P10721 [D816V]; conditions: Compound concentration 100.0 nM
[16] = target: Mitogen-activated protein kinase kinase kinase kinase 5 (Homo sapiens) (UniProt Q9Y4K4); conditions: Compound concentration 100.0 nM
[17] = target: Dual specificity mitogen-activated protein kinase kinase 2 (Homo sapiens) (UniProt P36507); conditions: Compound concentration 100.0 nM
[18] = target: Serine/threonine-protein kinase Nek7 (Homo sapiens) (UniProt Q8TDX7); conditions: Compound concentration 100.0 nM
Sequence of Serine/threonine-protein kinase Nek7 (Homo sapiens) (Q8TDX7 whole entry, looked up): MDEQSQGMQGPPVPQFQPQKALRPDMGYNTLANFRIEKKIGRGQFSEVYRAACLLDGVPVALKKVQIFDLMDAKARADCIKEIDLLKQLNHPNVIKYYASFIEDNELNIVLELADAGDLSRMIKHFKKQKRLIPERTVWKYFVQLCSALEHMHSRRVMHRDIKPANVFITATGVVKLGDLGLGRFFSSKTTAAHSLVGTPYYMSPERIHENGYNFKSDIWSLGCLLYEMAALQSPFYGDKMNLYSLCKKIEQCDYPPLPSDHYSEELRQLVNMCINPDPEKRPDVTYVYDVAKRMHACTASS

[19] = target: Cyclin-dependent kinase 16 (Homo sapiens) (UniProt Q00536); conditions: Compound concentration 100.0 nM
Sequence of Cyclin-dependent kinase 16 (Homo sapiens) (Q00536 whole entry): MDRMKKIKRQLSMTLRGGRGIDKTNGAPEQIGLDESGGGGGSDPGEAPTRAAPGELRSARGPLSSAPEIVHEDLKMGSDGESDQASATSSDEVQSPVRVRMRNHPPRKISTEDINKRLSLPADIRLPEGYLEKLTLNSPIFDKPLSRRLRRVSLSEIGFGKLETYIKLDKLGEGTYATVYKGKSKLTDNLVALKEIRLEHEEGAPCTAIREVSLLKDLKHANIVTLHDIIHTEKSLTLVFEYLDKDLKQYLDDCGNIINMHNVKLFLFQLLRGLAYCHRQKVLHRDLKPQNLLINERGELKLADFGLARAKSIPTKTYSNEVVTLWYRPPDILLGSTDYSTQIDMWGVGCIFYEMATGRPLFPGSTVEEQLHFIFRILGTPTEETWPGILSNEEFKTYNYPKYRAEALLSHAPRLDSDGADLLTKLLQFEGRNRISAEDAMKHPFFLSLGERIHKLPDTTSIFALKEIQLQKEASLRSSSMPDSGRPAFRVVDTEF

[20] = target: Cyclin-dependent kinase 18 (Homo sapiens) (UniProt Q07002); conditions: Compound concentration 100.0 nM
[21] = target: Phosphatidylinositol 3-kinase C2 domain-containing subunit gamma (Homo sapiens) (UniProt O75747); conditions: Compound concentration 100.0 nM
[22] = target: Phosphatidylinositol 4,5-bisphosphate 3-kinase catalytic subunit gamma isoform (Homo sapiens) (UniProt P48736); conditions: Compound concentration 100.0 nM
[23] = target: Serine/threonine-protein kinase N2 (Homo sapiens) (UniProt Q16513); conditions: Compound concentration 100.0 nM
[24] = target: Receptor-interacting serine/threonine-protein kinase 1 (Homo sapiens) (UniProt Q13546); conditions: Compound concentration 100.0 nM
[25] = target: Non-receptor tyrosine-protein kinase TYK2 (Homo sapiens) (UniProt P29597); conditions: Compound concentration 100.0 nM
Sequence of Non-receptor tyrosine-protein kinase TYK2 (Homo sapiens) (P29597 whole entry): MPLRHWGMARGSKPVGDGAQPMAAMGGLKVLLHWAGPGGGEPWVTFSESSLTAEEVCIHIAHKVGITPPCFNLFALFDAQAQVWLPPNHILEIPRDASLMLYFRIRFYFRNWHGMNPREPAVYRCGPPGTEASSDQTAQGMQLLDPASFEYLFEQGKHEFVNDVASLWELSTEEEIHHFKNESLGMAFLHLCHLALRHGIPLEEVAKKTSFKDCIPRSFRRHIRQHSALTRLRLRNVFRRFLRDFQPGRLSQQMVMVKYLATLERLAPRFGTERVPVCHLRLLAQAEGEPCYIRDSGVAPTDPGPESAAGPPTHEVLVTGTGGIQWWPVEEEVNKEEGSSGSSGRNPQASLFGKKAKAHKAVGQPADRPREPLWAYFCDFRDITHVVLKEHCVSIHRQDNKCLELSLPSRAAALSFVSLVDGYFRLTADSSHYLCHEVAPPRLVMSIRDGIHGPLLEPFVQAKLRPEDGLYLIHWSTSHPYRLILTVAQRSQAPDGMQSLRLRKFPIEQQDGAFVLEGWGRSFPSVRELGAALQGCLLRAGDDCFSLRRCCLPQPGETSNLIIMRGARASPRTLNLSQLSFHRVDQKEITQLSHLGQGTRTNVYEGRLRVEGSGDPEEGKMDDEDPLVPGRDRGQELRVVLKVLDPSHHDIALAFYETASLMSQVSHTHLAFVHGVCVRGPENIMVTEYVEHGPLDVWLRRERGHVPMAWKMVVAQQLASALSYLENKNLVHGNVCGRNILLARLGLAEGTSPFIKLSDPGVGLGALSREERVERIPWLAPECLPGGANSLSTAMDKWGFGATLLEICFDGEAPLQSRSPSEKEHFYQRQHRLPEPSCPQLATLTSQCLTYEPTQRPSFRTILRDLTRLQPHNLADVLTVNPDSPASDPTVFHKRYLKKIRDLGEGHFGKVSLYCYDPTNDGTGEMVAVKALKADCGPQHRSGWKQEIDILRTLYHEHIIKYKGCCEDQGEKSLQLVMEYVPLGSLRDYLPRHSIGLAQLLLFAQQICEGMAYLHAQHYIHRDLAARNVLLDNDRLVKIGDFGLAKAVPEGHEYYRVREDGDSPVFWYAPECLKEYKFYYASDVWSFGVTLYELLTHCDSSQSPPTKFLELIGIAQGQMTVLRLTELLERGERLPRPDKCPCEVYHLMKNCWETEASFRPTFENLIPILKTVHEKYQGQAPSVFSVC

[26] = target: Tyrosine-protein kinase Yes (Homo sapiens) (UniProt P07947); conditions: Compound concentration 100.0 nM
[27] = target: GABA-A receptor; anion channel (Rattus norvegicus) (UniProt O09028+P15431+P18506+P18508+P19969+P20236+P23574+P23576+P28471+P28473+P30191+P62813+P63079+P63138+Q91ZM7+Q9ES14); conditions: Compound concentration 10.0 uM
[28] = target: Histamine H4 receptor (Homo sapiens) (UniProt Q9H3N8); conditions: Compound concentration 10.0 uM
[29] = target: T1, Alpha-1A adrenergic receptor (Homo sapiens) (UniProt P35348); conditions: Compound concentration 10.0 uM
T1 sequence (whole entry): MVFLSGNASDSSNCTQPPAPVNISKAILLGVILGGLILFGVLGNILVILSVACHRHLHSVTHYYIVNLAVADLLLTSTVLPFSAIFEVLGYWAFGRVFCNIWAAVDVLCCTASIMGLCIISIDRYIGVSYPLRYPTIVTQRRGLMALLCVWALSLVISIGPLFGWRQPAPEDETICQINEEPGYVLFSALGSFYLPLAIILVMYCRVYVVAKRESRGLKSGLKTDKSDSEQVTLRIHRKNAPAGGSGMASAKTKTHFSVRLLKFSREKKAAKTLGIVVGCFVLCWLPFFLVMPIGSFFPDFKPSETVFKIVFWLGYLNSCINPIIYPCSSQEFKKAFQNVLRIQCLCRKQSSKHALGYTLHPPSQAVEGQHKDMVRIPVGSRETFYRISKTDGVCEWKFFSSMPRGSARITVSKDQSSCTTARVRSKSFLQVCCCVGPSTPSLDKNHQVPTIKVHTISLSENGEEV

[30] = target: Neuropeptide Y receptor type 1 (Homo sapiens) (UniProt P25929); assay: Inhibition of Neuropeptide Y Y1 at 10 µM in the Eurofins-Panlabs radioligand binding assay (Eurofins_assay_257010); conditions: Compound concentration 10.0 uM
[31] = target: Neuropeptide Y receptor type 2 (Homo sapiens) (UniProt P49146); assay: Inhibition of Neuropeptide Y Y2 at 10 µM in the Eurofins-Panlabs radioligand binding assay (Eurofins_assay_257110); conditions: Compound concentration 10.0 uM
[32] = target: Prostaglandin G/H synthase 2 (Homo sapiens) (UniProt P35354); assay: Inhibition of Cyclooxygenase COX-2 at compound concentration of 10.0 uM in the Eurofins-Panlabs enzyme assay (Eurofins_assay_118010); design: substrate with concentration 0.3 uM Arachidonic acid, incubation time 15 min, incubation temperature 37 C; conditions: Compound concentration 10.0 uM
[33] = target: Caspase-8 (Homo sapiens) (UniProt Q14790); assay: Peptidase, CASP8 (Caspase 8) Eurofins-Panlabs enzyme assay; conditions: Compound concentration 10.0 uM
[34] = target: D(1A) dopamine receptor (Homo sapiens) (UniProt P21728); conditions: Compound concentration 10.0 uM

Structure (SMILES) | Ki [1] | residual activity [2] [%] | residual activity [3] [%] | residual activity [4] [%] | residual activity [5] [%] | residual activity [6] [%] | residual activity [7] [%] | residual activity [8] [%] | residual activity [9] [%] | residual activity [10] [%] | residual activity [11] [%] | residual activity [12] [%] | residual activity [13] [%] | residual activity [14] [%] | residual activity [15] [%] | residual activity [16] [%] | residual activity [17] [%] | residual activity [18] [%] | residual activity [19] [%] | residual activity [20] [%] | pKi [1] | further results
CC(C)CC(=O)N1CCc2nc(-c3ccc(Br)cc3)nc(N(C)Cc3ccccc3)c2C1 [THPP-1-NC] | 6890 nM (not active) | 84 | 94 | 100 | 81 | 92 | 77 | 100 | 100 | 100 | 61 | 100 | 100 | 100 | 100 | 93 | 100 | 100 | 100 | 100 | – | residual activity [21]: 100%; residual activity [22]: 100%; residual activity [23]: 80%; residual activity [24]: 100%; residual activity [25]: 100%; residual activity [26]: 100%; inhibition [27]: -4.66%; inhibition [28]: -7.78%; inhibition [29]: -1.11%
COCCOc1nc(-c2ccc(Cl)nc2)nc2c1CN(C(=O)c1ncn3ccccc13)CC2 [THPP-1] | – | 75 | 93 | 100 | 95 | 100 | 83 | 80 | 96 | 100 | 83 | 100 | 100 | 100 | 100 | 91 | 100 | 100 | 100 | 100 | 6.94 | inhibition [30]: 1%; inhibition [31]: 1%; inhibition [32]: -10%; inhibition [33]: -3%; residual activity [21]: 100%; residual activity [22]: 100%; residual activity [23]: 55%; residual activity [24]: 100%; residual activity [25]: 100%; residual activity [26]: 100%; inhibition [27]: 15%; inhibition [28]: -6.39%; inhibition [29]: 12.7%; inhibition [34]: 6%
